Measurements: US12384753B2, “17-beta-hydroxysteroid dehydrogenase type 13 inhibitors and methods of use thereof” (Enanta Pharmaceuticals, Inc., priority 2021, dated 2025)

Molecular target: Recombinant human HSD17B13 (Homo sapiens (Human), UniProt Q7Z5P4)
Assay: HSD17B13 rapid-fire mass spectrometry assay (RF/MS assay)
Assay type: biochemical
Conditions: inhibition of HSD17B13; LTB4 10 μM, NAD+ 0.5 mM, RT 3 h; IC50 ranges A-E
Summary of the method: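 Sf9-expressed human HSD17B13 (80 nM) with 10 μM LTB4 and 0.5 mM NAD+, incubated with compound (0–100 μM) for 3 h at RT in Tris pH 7.5/BSA/Tween-20. After formic acid quench, LTB4 conversion to 12-oxo-LTB4 measured by RapidFire MS/MS. IC50 from normalised residual activity, duplicates.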

Recombinant human HSD17B13, sequence (Q7Z5P4 20-300): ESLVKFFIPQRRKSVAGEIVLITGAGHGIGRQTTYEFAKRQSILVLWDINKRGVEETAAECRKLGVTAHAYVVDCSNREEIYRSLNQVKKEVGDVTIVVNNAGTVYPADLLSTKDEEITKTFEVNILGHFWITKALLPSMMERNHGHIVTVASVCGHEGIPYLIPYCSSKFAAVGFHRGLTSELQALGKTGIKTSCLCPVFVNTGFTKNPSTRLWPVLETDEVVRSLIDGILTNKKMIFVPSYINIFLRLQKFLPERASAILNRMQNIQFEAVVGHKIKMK

`CCCCOc1c(F)c(-c2nc(S(=O)(=O)Nc3cc(F)c(C(=O)O)cc3OC)cs2)ccc1[C@H]1CC[C@H](C(C)C)CC1` [Example 589] and `COc1cc(C(=O)O)c(F)cc1NS(=O)(=O)c1csc(-c2ccc([C@H]3CC[C@@H](C(C)C)CC3)c(OC(C)C)c2F)n1` [Example 586] fall in the same range of IC50: 100 to 500 nM for the first, 100 to 500 nM for the second.

First: COc1cc(C(=O)O)c(F)cc1NS(=O)(=O)c1csc(-c2ccc(-c3ccc(C45CC6C[C@H](C4)C[C@H](C6)C5)cc3)cc2F)n1 [Example 760]
Second: COc1cc(C(=O)O)c(F)cc1NS(=O)(=O)c1csc(-c2ccc(-c3ccc(-c4ccc(C56CC7C[C@H](C5)C[C@H](C7)C6)cc4)cc3C(F)(F)F)cc2C(F)(F)F)n1 [Example 737]
The IC50 of the first is lower: under 100 nM for the first, 1000 to 100000 nM for the second. The first is the more potent here.

`COc1cc(C(=O)O)ccc1NS(=O)(=O)c1csc(N2CCC[C@@H](Cc3ccc(F)cc3)C2)n1` [Example 279] and `COc1cc(C(=O)O)ccc1NS(=O)(=O)c1csc(N2CCCC(Oc3ccccc3)C2)n1` (stereo not shown) [Example 276] fall in the same range of IC50: 1000 to 100000 nM for the first, 1000 to 100000 nM for the second.

`COc1cc(C(=O)O)c(F)cc1NS(=O)(=O)c1csc(-c2ccc(C3=CCC(C(F)(F)F)CC3)c(C)c2F)n1` (stereo not shown) [Example 813] and `COc1cc(C(=O)O)c(F)cc1NS(=O)(=O)c1csc(-c2ccc(C3=CCC(C(F)(F)F)CC3)c(F)c2C)n1` (stereo not shown) [Example 599] cannot be ordered by IC50: under 100 nM for the first, under 100 nM for the second.

First: COc1cc(C(=O)O)ccc1NS(=O)(=O)c1coc(-c2ccc([C@H]3CC[C@H](C(F)(F)F)CC3)cc2)n1 [Example 610]
Second: COc1cc(C(=O)O)ccc1NS(=O)(=O)c1csc(-c2ccc(C3CCC(C(F)(F)F)CC3)cc2)n1 (stereo not shown) [Example 348]
The IC50 of the first is higher: 100 to 500 nM for the first, under 100 nM for the second. The second is the more potent here.

`COc1cc(C(=O)O)c(F)cc1NS(=O)(=O)c1coc(-c2ccc(C3CCC(C)(C)CC3)cc2)n1` [Example 496] and `COc1cc(C(=O)O)c(F)cc1NS(=O)(=O)c1csc(-c2ccc(C3CCC(C)(C)CC3)c(F)c2)n1` [Example 513] cannot be ordered by IC50: under 100 nM for the first, under 100 nM for the second.

First: COc1cc(C(=O)O)ccc1NS(=O)(=O)c1csc(N2CCN(c3ccc(C(F)(F)F)cc3)CC2)n1 [Example 272]
Second: COc1cc(C(=O)O)ccc1NS(=O)(=O)c1csc(N2CCN(c3ccc(C)cc3)CC2)n1 [Example 278]
The IC50 of the first is lower: 100 to 500 nM for the first, 1000 to 100000 nM for the second. The first is the more potent here.

First: O=C(O)c1cc2c(cc1F)N(S(=O)(=O)c1ccc(F)cc1)CCC2 [Example 14, 7-fluoro-1-((4-fluorophenyl)sulfonyl)-1,2,3,4-tetrahydroquinoline-6-carboxylic acid]
Second: O=C(O)c1ccc2c(c1)CCN2S(=O)(=O)c1ccc(F)cc1 [Example 12]
The IC50 of the first is lower: 1000 to 100000 nM for the first, over 100000 nM for the second.

`COc1cc(C(=O)O)c(F)cc1NS(=O)(=O)c1csc(-c2ccc(C3CCC(C)(C)CC3)cc2OC)n1` [Example 539] and `COc1cc(C(=O)O)c(F)cc1NS(=O)(=O)c1csc(-c2ccc(C3CCC(C)(C)CC3)c3[nH]ncc23)n1` [Example 541] cannot be ordered by IC50: under 100 nM for the first, under 100 nM for the second.

Compared with `COc1cc(C(=O)O)ccc1NS(=O)(=O)c1ccc(-c2ccc(C3CCCCC3)cc2)cn1` [Example 340], `COc1cc(C(=O)O)ccc1NS(=O)(=O)c1cnc(-c2ccc(C#CC3CCCC3)cc2)s1` [Example 455, 4-((2-(4-(cyclopentylethynyl)phenyl)thiazole)-5-sulfonamido)-3-methoxybenzoic acid] is lower in IC50: 1000 to 100000 nM for the first, 100 to 500 nM for the second.

First: COc1cc(C(=O)O)ccc1NS(=O)(=O)Nc1nc2ccc(-c3ccc(F)cc3)cc2s1 [Example 329]
Second: COc1cc(C(=O)O)ccc1NS(=O)(=O)N1Cc2ccc(-c3ccc(F)cc3)cc2C1 [Example 334]
The IC50 of the first is higher: 1000 to 100000 nM for the first, 100 to 500 nM for the second. The second is the more potent here.

`COc1cc(C(=O)O)c(F)cc1NS(=O)(=O)c1cnc(-c2ccc([C@H]3CC[C@@H](C(F)(F)F)CC3)cc2)s1` [Example 724] and `COc1cc(C(=O)O)c(F)cc1NS(=O)(=O)c1cnc(-c2ccc(C3=CCC(C(F)(F)F)CC3)cc2)s1` (stereo not shown) [Example 719] cannot be ordered by IC50: under 100 nM for the first, under 100 nM for the second.

First: COc1cccc(C#Cc2nc(S(=O)(=O)Nc3ccc(C(=O)O)cc3OC)cs2)c1 [Example 190]
Second: COc1ccc(C#Cc2nc(S(=O)(=O)Nc3ccc(C(=O)O)cc3OC)cs2)cc1 [Example 177]
The IC50 of the first is lower: under 100 nM for the first, 100 to 500 nM for the second.

First: COc1cncc(C#Cc2nc(S(=O)(=O)Nc3ccc(C(=O)O)cc3OC)cs2)c1 [Example 248]
Second: COC(=O)c1ccc(C#Cc2nc(S(=O)(=O)Nc3ccc(C(=O)O)cc3OC)cs2)cc1OC(F)(F)F [Example 398]
The IC50 of the first is higher: 100 to 500 nM for the first, under 100 nM for the second.

Compared with `O=S(=O)(Nc1ccc(-c2nnn[nH]2)cc1)c1cnc(-c2ccc(F)cc2)s1` [Example 34], `O=S(=O)(Nc1ccccc1)c1cnc(-c2ccc(F)cc2)s1` [Example 24] is higher in IC50: 1000 to 100000 nM for the first, over 100000 nM for the second. The first is the more potent here.

Compared with `COc1c(NS(=O)(=O)c2csc(-c3ccc([C@H]4CC[C@H](C(F)(F)F)CC4)cc3)n2)ccc2c(O)cccc12` [Example 649], `COc1cc(C(=O)O)ccc1NS(=O)(=O)c1cccc(-c2ccc([C@H]3CC[C@@H](C(F)(F)F)CC3)cc2)c1F` [Example 474, 4-((2-fluoro-4′-((1s,4s)-4-(trifluoromethyl)cyclohexyl)-[1,1′-biphenyl])-3-sulfonamido)-3-methoxybenzoic acid] is lower in IC50: 1000 to 100000 nM for the first, 100 to 500 nM for the second.

First: COc1cc(C(=O)O)ccc1NS(=O)(=O)c1csc(-c2ccc(O)cc2)n1 [Example 128]
Second: COc1cc(C(=O)O)ccc1NS(=O)(=O)c1csc(-c2ccc3ccccc3c2)n1 [Example 130]
The IC50 of the first is lower: 100 to 500 nM for the first, 500 to 1000 nM for the second.

`COc1ccc(-c2ccc(S(=O)(=O)Nc3ccc(C(=O)O)cc3OC)s2)cc1` [Example 179] and `COc1ccc(-c2ccc(-c3ccc(S(=O)(=O)Nc4ccc(C(=O)O)cc4OC)s3)cc2)cc1` [Example 206] fall in the same range of IC50: 100 to 500 nM for the first, 100 to 500 nM for the second.

`COc1cc(C(=O)O)c(F)cc1NS(=O)(=O)c1cccc(-c2ccc([C@H]3CC[C@@H](C(C)(C)C)CC3)cc2)c1F` [Example 500] and `CCC[C@H]1CC[C@H](c2ccc(-c3nc(S(=O)(=O)Nc4cc(F)c(C(=O)O)cc4OC)cs3)cc2)CC1` [Example 715] cannot be ordered by IC50: under 100 nM for the first, under 100 nM for the second.

Compared with `O=C(O)c1ccc(NS(=O)(=O)c2cnc(-c3ccc(F)cc3)s2)cc1-c1ccccc1` [Example 47], `O=C(O)c1ccc(NS(=O)(=O)c2cnc(-c3ccc(F)cc3)s2)cc1F` [Example 21] is lower in IC50: 1000 to 100000 nM for the first, 500 to 1000 nM for the second. The second is the more potent here.

First: COc1cc(C(=O)O)c(F)cc1NS(=O)(=O)c1csc(-c2ccc(-c3ccc(C4CCC(C(C)C)CC4)cc3C(F)(F)F)cc2C(F)(F)F)n1 (stereo not shown) [Example 753]
Second: COc1cc(C(=O)O)c(-c2ccccc2)cc1NS(=O)(=O)c1csc(-c2ccc(C3CCC(C)(C)CC3)cc2C(F)(F)F)n1 [Example 681]
The IC50 of the first is lower: 100 to 500 nM for the first, 1000 to 100000 nM for the second.

Compared with `COc1cc(C(=O)O)ccc1NS(=O)(=O)c1csc(-c2ccc(-c3ccc4ccccc4c3)cc2)n1` [Example 404], `COc1cc(C(=O)O)c(F)cc1NS(=O)(=O)c1csc(-c2ccc(-c3cccnc3)cc2)n1` [Example 526] is higher in IC50: under 100 nM for the first, 100 to 500 nM for the second. The first is the more potent here.

`COc1cc(C(=O)O)ccc1NS(=O)(=O)N1CCC(c2nnn[nH]2)CC1` [Example 313] and `COc1cc(C(=O)O)ccc1NS(=O)(=O)c1csc(N2CCC(c3nnn[nH]3)CC2)n1` [Example 263] fall in the same range of IC50: 1000 to 100000 nM for the first, 1000 to 100000 nM for the second.

First: COc1cc(C(=O)O)ccc1NS(=O)(=O)N1Cc2ccc(C#CC3CCCC3)cc2C1 [Example 342]
Second: CCC[C@H]1CC[C@H](C2CC=C(c3ccc4c(c3)CN(S(=O)(=O)Nc3ccc(C(=O)O)cc3OC)C4)CC2)CC1 (stereo partly drawn) [Example 377, 3-methoxy-4-((5-((1S,1′s,4′S)-4′-propyl-[1,1′-bi(cyclohexan)]-3-en-4-yl)isoindoline)-2-sulfonamido)benzoic acid]
The IC50 of the first is lower: 500 to 1000 nM for the first, 1000 to 100000 nM for the second.

Compared with `O=C(O)[C@H]1CC[C@H](NS(=O)(=O)c2cnc(-c3ccc(F)cc3)s2)CC1` [Example 67], `O=C(O)C12CC(NS(=O)(=O)c3cnc(-c4ccc(F)cc4)s3)(C1)C2` [Example 68] is higher in IC50: 1000 to 100000 nM for the first, over 100000 nM for the second.

`COc1cc(C(=O)O)c(F)cc1NS(=O)(=O)c1csc(-c2cnc(C3CCC(C)(C)CC3)c(F)c2)n1` [Example 554] and `COc1cc(C(=O)O)c(F)cc1NS(=O)(=O)c1csc(-c2cnc(C3=CCC(C)(C)CC3)c(F)c2)n1` [Example 552] fall in the same range of IC50: 100 to 500 nM for the first, 100 to 500 nM for the second.

`COc1cc(C(=O)O)ccc1NS(=O)(=O)c1c[nH]c2ccccc12` [Example 137] and `COc1cc(C(=O)O)ccc1NS(=O)(=O)c1cnn(-c2ccc(F)cc2)c1C` [Example 80] fall in the same range of IC50: 1000 to 100000 nM for the first, 1000 to 100000 nM for the second.

`COc1cc(C(=O)O)c(F)cc1NS(=O)(=O)c1csc(-c2ccc(C3=CCC(C(C)(C)C)CC3)c(F)c2C)n1` (stereo not shown) [Example 594] and `COc1cc(C(=O)O)c(F)cc1NS(=O)(=O)c1csc(-c2ccc(C3=CCC(C(F)(F)F)CC3)c(OC)c2F)n1` (stereo not shown) [Example 600] cannot be ordered by IC50: under 100 nM for the first, under 100 nM for the second.

`O=C(O)c1ccc2sc(NS(=O)(=O)c3cnc(-c4ccc(F)cc4)s3)nc2c1` [Example 388, 2-((2-(4-fluorophenyl)thiazole)-5-sulfonamido)benzo[d]thiazole-5-carboxylic acid] and `O=C(O)c1ccc(NS(=O)(=O)c2cnc(-c3ccc(F)cc3)s2)c(OC(F)(F)F)c1` [Example 48] fall in the same range of IC50: 1000 to 100000 nM for the first, 1000 to 100000 nM for the second.

Compared with `COc1cc(C(=O)O)ccc1NS(=O)(=O)c1cnc(-c2ccc(C3=CC4CCC3C4)cc2)s1` (stereo not shown) [Example 722], `COc1cc(C(=O)O)ccc1NS(=O)(=O)c1csc(N2CCCC(Nc3ccccc3)C2)n1` (stereo not shown) [Example 261] is higher in IC50: 100 to 500 nM for the first, 500 to 1000 nM for the second. The first is the more potent here.

Compared with `COc1cc(C(=O)O)c(F)cc1NS(=O)(=O)c1csc(-c2ccc(-c3cccs3)cc2)n1` [Example 645], `CCCCC[C@H]1CC[C@H](c2ccc(-c3nc(S(=O)(=O)Nc4cc(F)c(C(=O)O)cc4OC)cs3)cc2)CC1` [Example 706] is lower in IC50: 100 to 500 nM for the first, under 100 nM for the second. The second is the more potent here.

First: COc1cc(C(=O)O)c(F)cc1NS(=O)(=O)c1csc(-c2ccc(C3CCC(C)(C)CC3)c(OC(C)C)c2F)n1 [Example 567]
Second: CCOP(=O)(OCC)c1ccc(NS(=O)(=O)c2csc(C#Cc3cccc(OC(F)(F)F)c3)n2)c(OC)c1 [Example 392, diethyl (3-methoxy-4-((2-((3-(trifluoromethoxy)phenyl)ethynyl)thiazole)-4-sulfonamido)phenyl)phosphonate]
The IC50 of the first is lower: under 100 nM for the first, 1000 to 100000 nM for the second. The first is the more potent here.
